# Source: patent publication US20170253601A1, “Substituted Pyrrolidine Compounds” (EPIZYME, INC., priority 2014, published 2017)
# Biological target: T1, SMYD2 (Homo sapiens, UniProt Q9NRG4)
# T1 construct: Full length SMYD2 (NP 064582.2) was cloned; His6 (N, cleaved yes); FLAG (N); made in house; host or cells: Sf9 insect cells
# Test: SMYD2 Biochemical Assay (3H-SAM, biotinylated peptide substrate, Flashplate)
# Settings: IC50 values are an average of n = 1 to n = 50; read-out: SMYD2 Biochem IC50 (μM)*
# Procedure, shortened: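 Full-length His/FLAG-tagged SMYD2 expressed in Sf9 cells with tag cleaved, 1.5 nM, pre-incubated 30 min at room temperature with compound, then 10 nM 3H-SAM and 60 nM biotinylated peptide added. Buffer 20 mM Bicine pH 7.6, 1 mM TCEP, 0.005% BSG, 0.002% Tween20, 2% DMSO. Stopped with 600 uM cold SAM; 3H-peptide captured on streptavidin Flashplate; IC50 by curve fit.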
# T1 sequence (Q9NRG4 whole entry): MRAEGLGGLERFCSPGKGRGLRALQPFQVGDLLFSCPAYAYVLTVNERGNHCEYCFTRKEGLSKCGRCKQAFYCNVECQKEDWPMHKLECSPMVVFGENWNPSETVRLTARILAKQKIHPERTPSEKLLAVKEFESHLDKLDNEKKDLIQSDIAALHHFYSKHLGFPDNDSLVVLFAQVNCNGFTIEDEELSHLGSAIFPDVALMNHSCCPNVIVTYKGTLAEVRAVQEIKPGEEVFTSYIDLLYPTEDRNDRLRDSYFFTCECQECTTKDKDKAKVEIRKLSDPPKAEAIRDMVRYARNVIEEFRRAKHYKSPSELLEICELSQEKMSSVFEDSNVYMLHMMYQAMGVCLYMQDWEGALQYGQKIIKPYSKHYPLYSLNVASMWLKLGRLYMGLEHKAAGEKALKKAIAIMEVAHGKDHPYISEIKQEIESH
row,Structure (SMILES),IC50 [µM]
1,"CN1C[C@H](NC(=O)c2cc(C3CC3)on2)[C@@H](C(C)(C)C)C1 (racemic) [compound 144, (±)-trans-N-[4-tert-butyl-1-methylpyrrolidin-3-yl]-5-cyclopropyl-1,2-oxazole-3-carboxamide]",> 50
2,"C[C@H]1CN(Cc2ccc(Cl)cc2)C[C@H]1NC(=O)c1cc(C2CC2)on1 (racemic) [compound 210, (±)-cis-N-[1-[(4-chloro-phenyl)methyl]-4-methylpyrrolidin-3-yl]-5-cyclopropyl-1,2-oxazole-3-carboxamide]",4.32
3,"CC(N1C[C@@H](C)[C@H](NC(=O)c2cc(C3CC3)on2)C1)C(F)(F)F (stereo partly drawn) [compound 247, trans-5-cyclopropyl-N-[(3S,4R)-4-methyl-1-(1,1,1-trifluoropropan-2-yl)pyrrolidin-3-yl]-1,2-oxazole-3-carboxamide]",> 50
4,"CC(C)N1C[C@H](NC(=O)c2cc(C3CC3)on2)[C@@](C)(O)C1 [compound 246, 5-cyclopropyl-N-[(3S,4S)-4-hydroxy-4-methyl-1-(propan-2-yl)pyrrolidin-3-yl]-1,2-oxazole-3-carboxamide]",> 50
5,"C[C@H]1CN(Cc2cc3ccccc3nc2Cl)C[C@H]1NC(=O)c1cc(C2CC2)on1 (racemic) [compound 269, (±)-cis-N-[1-[(2-chloro-quinolin-3-yl)methyl]-4-methylpyrrolidin-3-yl]-5-cyclopropyl-1,2-oxazole-3-carboxamide]",4.17
6,"COC(=O)CN1C[C@@H](C)[C@H](NC(=O)c2cc(C3CC3)on2)C1 (racemic) [compound 220, (±)-trans-methyl 2-[3-(5-cyclopropyl-1,2-oxazole-3-amido)-4-methylpyrrolidin-1-yl]acetate]",> 50
7,"CC(=O)Nc1cccc(N2C[C@H](C)[C@H](NC(=O)c3cc(C4CC4)on3)C2)c1 (racemic) [compound 325, (±)-cis-5-cyclopropyl-N-[1-(3-acetamidophenyl)-4-methylpyrrolidin-3-yl]-1,2-oxazole-3-carboxamide]",> 50
8,"CC(C)N1C[C@@H](C)[C@H](NC(=O)c2cc(C3(C)CC3)on2)C1 (racemic) [compound 250, (±)-trans-N-[4-methyl-1-(propan-2-yl)pyrrolidin-3-yl]-5-(1-methylcyclo-propyl)-1,2-oxazole-3-carboxamide]",> 50
9,"C[C@@H]1CN(Cc2cccc3c2OCO3)C[C@H]1NC(=O)c1cc(C2CC2)on1 (racemic) [compound 135, (±)-trans-N-[1-(2H-1,3-benzodioxol-4-ylmethyl)-4-methyl-pyrrolidin-3-yl]-5-cyclopropyl-1,2-oxazole-3-carboxamide]",> 50
10,"COc1ccc(CN2C[C@@H](C)[C@H](NC(=O)c3cc(C4CC4)on3)C2)c(OC)c1 (racemic) [compound 134, (±)-trans--cyclopropyl-N-[1-[(2,4-dimethoxy-phenyl)methyl]-4-methylpyrrolidin-3-yl]-1,2-oxazole-3-carboxamide]",> 50
11,"CC(C)N1C[C@H](NC(=O)c2cc(C3CC3)on2)C[C@@H]1COCC#Cc1ccccc1 (stereo in doubt) [compound 238, (±)-cis-5-cyclopropyl-N-[5-{[(3-phenylprop-2-yn-1-yl)oxy]methyl}-1-(propan-2-yl)pyrrolidin-3-yl]-1,2-oxazole-3-carboxamide]",39.7
12,"CO[C@H]1CN(C)C[C@@H]1NC(=O)c1cc(C2CC2)on1 (racemic) [compound 122, (±)-trans-5-cyclopropyl-N-(4-methoxy-1-methylpyrrolidin-3-yl)-1,2-oxazole-3-carboxamide]",> 50
13,"C[C@H]1CN(Cc2nccn2C)C[C@H]1NC(=O)c1cc(C2CC2)on1 (racemic) [compound 305, (±)-cis-5-cyclopropyl-N-{4-methyl-1-[(1-methyl-1H-imidazol-2-yl)methyl]pyrrolidin-3-yl}-1,2-oxazole-3-carboxamide]",41.1
14,"C[C@@H]1CN(Cc2ccccn2)C[C@H]1NC(=O)c1cc(C2CC2)on1 (racemic) [compound 125, (±)-trans-5-cyclopropyl-N-[4-methyl-1-(pyridin-2-ylmethyl)pyrrolidin-3-yl]-1,2-oxazole-3-carboxamide]",> 50
15,"CC(C)c1cc(C(=O)N[C@H]2C[C@H](CNC(=O)c3ccccc3)N(C3CC3)C2)no1 (stereo in doubt) [compound 189, (±)-trans-N-[1-cyclopropyl-5-[(phenyl-formamido)methyl]pyrrolidin-3-yl]-5-(propan-2-yl)-1,2-oxazole-3-carboxamide]",> 50
16,"CCOC(=O)C(C)CN1C[C@@H](C)[C@H](NC(=O)c2cc(C3CC3)on2)C1 (relative stereo) [compound 128, trans-ethyl 3-[3-(5-cyclopropyl-1,2-oxazole-3-amido)-4-methylpyrrolidin-1-yl]-2-methylpropanoate]",> 50
17,"CCc1nc(C)c(CN2C[C@H](C)[C@H](NC(=O)c3cc(C4CC4)on3)C2)[nH]1 (racemic) [compound 196, (±)-cis-5-cyclopropyl-N-(1-[(2-ethyl-4-methyl-1H-imidazol-5-yl)methyl]-4-methylpyrrolidin-3-yl)-1,2-oxazole-3-carboxamide]",35.5
18,"C[C@@H]1CN(c2ccccn2)C[C@H]1NC(=O)c1cc(C2CC2)on1 (racemic) [compound 312, (±)-trans-5-cyclopropyl-N-[4-methyl-1-(pyridin-2-yl)pyrrolidin-3-yl]-1,2-oxazole-3-carboxamide]",> 50
19,"C[C@@H]1CN(Cc2ccc(N3CCCC3)cc2)C[C@H]1NC(=O)c1cc(C2CC2)on1 (racemic) [compound 172, (±)-trans-5-cyclopropyl-N-[4-methyl-1-{[4-(pyrrolidin-1-yl)phenyl]methyl}pyrrolidin-3-yl]-1,2-oxazole-3-carboxamide]",29.5
20,"CC(C)N1CC(CNC(=O)c2ccccc2)C(NC(=O)c2cc(C3CC3)on2)C1 (stereo not drawn) [compound 237, 5-cyclopropyl-N-{4-[(phenylformamido)methyl]-1-(propan-2-yl)pyrrolidin-3-yl}-1,2-oxazole-3-carboxamide]",10.5

# Second part, the molecule after the results:
row,IC50 [µM],Structure (SMILES)
1,1.42,"C[C@H]1CN(CC2CC2)C[C@H]1NC(=O)c1cc(C2CC2)on1 (racemic) [compound 162, (±)-cis-5-cyclopropyl-N-[1-(cyclopropylmethyl)-4-methylpyrrolidin-3-yl]-1,2-oxazole-3-carboxamide]"
2,> 50,"C[C@@H]1CN(CC(=O)N2CCCC2)C[C@H]1NC(=O)c1cc(C2CC2)on1 (racemic) [compound 293, (±)-trans-5-cyclopropyl-N-{4-methyl-1-[2-oxo-2-(pyrrolidin-1-yl)ethyl]pyrrolidin-3-yl}-1,2-oxazole-3-carboxamide]"
3,> 50,"C[C@@H]1CN(CC(N)=O)C[C@H]1NC(=O)c1cc(C2CC2)on1 (racemic) [compound 310, (±)-trans-N-[1-(carbamoylmethyl)-4-methylpyrrolidin-3-yl]-5-cyclopropyl-1,2-oxazole-3-carboxamide]"
4,> 50,"C[C@@H]1CN(CC2CCCOC2)C[C@H]1NC(=O)c1cc(C2CC2)on1 (mixture of isomers) [compound 127, (±)-trans-5-cyclopropyl-N-[4-methyl-1-(oxan-3-ylmethyl)pyrrolidin-3-yl]-1,2-oxazole-3-carboxamide]"
5,> 50,"C[C@@H]1CN(CC2CCOC2)C[C@H]1NC(=O)c1cc(C2CC2)on1 (mixture of isomers) [compound 137, (±)-trans-5-cyclopropyl-N-[4-methyl-1-(oxolan-3-ylmethyl)pyrrolidin-3-yl]-1,2-oxazole-3-carboxamide]"
6,0.682,"CC(C)N1C[C@@H](C)[C@@H](NC(=O)c2cc(C3CC3)on2)C1 [compound 234, 5-cyclopropyl-N-[(3R,4R)-4-methyl-1-(propan-2-yl)pyrrolidin-3-yl]-1,2-oxazole-3-carboxamide]"

# Same assay, conditions: Table 1; average of n = 1 to n = 50; read-out: SMYD2 Biochem IC50
row,IC50 [µM],Structure (SMILES)
1,> 50,"O=C(N[C@@H]1C[C@H](CO)N(C2CC2)C1)c1cc(C2CC2)on1 (racemic) [compound 49, (±)-cis-5-cyclopropyl-N-(1-cyclopropyl-5-(hydroxy-methyl)pyrrolidin-3-yl)isoxazole-3-carboxamide]"

# Same assay, conditions: Table 2; average of n = 1 to n = 50; read-out: SMYD2 Biochem IC50
row,IC50 [µM],Structure (SMILES)
1,5,"C[C@H]1CN(C2CCCC2)C[C@H]1NC(=O)c1cc(C2CC2)on1 (racemic) [compound 75, (±)-cis-N-(1-cyclopentyl-4-methylpyrrolidin-3-yl)-5-cyclopropylisoxazole-3-carboxamide]"
2,> 50,"C[C@@H]1CN(Cc2ccncc2)C[C@H]1NC(=O)c1cc(C2CC2)on1 (racemic) [compound 85, (±)-trans-5-cyclopropyl-N-(4-methyl-1-(pyridin-4-ylmethyl)pyrrolidin-3-yl)isoxazole-3-carboxamide]"
3,> 50,"C[C@@H]1CN(S(=O)(=O)C2CCNCC2)C[C@@H]1NC(=O)c1cc(C2CC2)on1 (racemic) [compound 67, (±)-cis 5-cyclopropyl-N-(4-methyl-1-(piperidin-4-ylsulfonyl)pyrrolidin-3-yl)isoxazole-3-carboxamide]"
4,> 50,"C[C@H]1CN(S(=O)(=O)C2CCNCC2)C[C@@H]1NC(=O)c1cc(C2CC2)on1 (racemic) [compound 91, (±)-trans-5-cyclopropyl-N-(4-methyl-1-(piperidin-4-ylsulfonyl)pyrrolidin-3-yl)isoxazole-3-carboxamide]"
5,> 50,"C[C@@H]1CN(C2CCN(C)CC2)C[C@@H]1NC(=O)c1cc(C2CC2)on1 (racemic) [compound 82, (±)-cis-5-cyclopropyl-N-(4-methyl-1-(1-methylpiperidin-4-yl)pyrrolidin-3-yl)isoxazole-3-carboxamide]"
6,> 50,"C[C@@H]1CN(C2CCNCC2)C[C@@H]1NC(=O)c1cc(C2CC2)on1 (racemic) [compound 81, (±)-cis-5-cyclopropyl-N-(4-methyl-1-(piperidin-4-yl)pyrrolidin-3-yl)isoxazole-3-carboxamide]"
